Measured values reported in patent US20240287575A1, “Role of Human Pegivirus (HPGV) in Parkinson's Disease: Implications for Diagnosis and Treatment” (Northwestern University, priority 2023, published 2024).

Tested on: normal human astrocytes (NHA)
Experiment: Gene expression in NHA exposed to inflammatory cytokines (qPCR)
Type: cell-based
Conditions: for SNCA expression induction: NHA exposed to cytokine for 24 hours, no significant difference between infected and uninfected cells; for LCN2 expression induction: NHA, HPgV-infected and uninfected, exposed to cytokine for 24 hours
Protocol: As previously stated, iPSC-derived PD astrocytes show increased expression of LCN2 and GFAP following exposure to inflammatory conditions. Inflammation can additionally induce A1 phenotypic skewing in astrocytes.^4 Therefore, the analysis of mtDNA, PD astrocyte-associated genes, and A1/A2 skewing was repeated on NHA that were exposed to the inflammatory cytokine IL1β, IFNγ, or TNFα for 24 hours. mtDNA copy number was reduced in infected cells exposed to cytokines as compared to uninfected cells exposed to cytokines (FIG. 5A; IL1β p=0.0004; IFNγ p=0.001; TNFα p=0.03). […] SNCA expression was induced 10-fold following exposure to IL1β.
Normal human astrocytes (NHA): Cryopreserved NHA were obtained from Lonza. NHA were maintained in Astrocyte Basal Medium with Astrocyte Growth Medium SingleQuot supplements (Lonza). NHA were seeded at 5×10^3 cells/cm and allowed to reach confluency before splitting and seeding into new cell culture vessels, which took approximately 10 days. Medium was changed 24 hours after seeding and every subsequent 48 hours. NHA were discarded at passage 10.
Quantification of PD astrocyte associated gene expression was performed on similarly extracted RNA, following DNAse digestion and isopropanol precipitation. DNAse-treated RNA was resuspended in 50 μL of nuclease-free H2O, quantitated using the Qubit BR ssRNA kit, and diluted to 40 ng/μL. Commercially available TaqMan gene expression assays against GFAP (#Hs00909233; Fisher Scientific), LCN2 (#Hs01008571), SNCA (#Hs00240906), and ITPR2 (#Hs00181916), using FAM as a detector, were each multiplexed with GAPDH (housekeeping gene; #Hs02786624) using VIC as a detector. Each assay was run in duplicate 20 μL reactions, with 5 μL of diluted template RNA, 1 μL of each appropriate 20× assay, and 5 μL of TaqMan Fast Virus 1-step master mix. ΔΔCT was calculated as previously described.

With IL1β: inflammatory cytokine the SNCA expression induction was 10 fold and the LCN2 expression induction was “induced LCN2 expression in both infected and uninfected cells”.

IFNγ: inflammatory cytokine was tested, and the SNCA expression induction was “observed to a lesser extent”.

TNFα was tested, and the SNCA expression induction was “observed to a lesser extent” and the LCN2 expression induction was “significantly induced expression of LCN2 in infected cells but not uninfected cells”.
